How the values were obtained:
Format in all cases: cell-based, human
[1] = test system: hydrogen peroxide (H2O2) in endometrial stromal cells; test: Determination of hydrogen peroxide (H2O2) content; settings: 18 h
Description: Superoxide anion (O2.^−) assay kit was purchased from Nanjing Jiancheng Bioengineering Insitute; Hydroxyl free radical assay kit was purchased from Shanghai Xinyu Biological Technology Co., Ltd., Hydrogen Peroxide Assay Kit was purchased from Beyotime Biotechnology Research Institute. The cells were seeded in 6-well cell culture plates and incubated for 24 h after the cells adhered to the plate. Three different concentrations PQQ (30 nm, 300 nm and 3 μm) were added to the cultures respectively. After additional 18 h incubation, the cells were lysed using the lysis buffer contained in reagent kit, centrifuged at 12000×g for 5 min at 4° C. 50 μL of sample supernatant was mixed with 100 μL detection solution, rested 30 min at room temperature. The optical density at wavelength 560 nm was measured.

[2] = test system: ectopic endometrial stromal cells; test: MTT cell proliferation of ectopic endometrial stromal cells
Description: Endometrial tissues were surgically isolated from patients with chocolate cyst of ovary, washed 2 to 3 times with PBS supplemented with antibiotics in ultra-clean cabinet, and cut into tiny pieces (about 1 mm^3 in size) with aseptic scissors. The tissues were digested with 1 mg/ml collagenase type I for 30 to 90 min at 37° C., and continually digested with Dnase I (final concentration of 15 U/ml, 2% Dnase I) for another 30 min. The digested tissues were filtered thorough 60-mesh stainless steel filter cell strainer to remove the undigested cell tissues, and were further filtered with 200- or 400-mesh strainer. The filtered solution was centrifuged at 1000 rpm for 5 min. After removing the supernatants, the cells were washed once with culture medium compounded by DMEM/F12 (1:1 v/v) and 10% fetal bovine serum, re-suspended in the culture medium, and seeded in 6-well tissue culture plate or T25 tissue culture flasks with an appropriate density. After 24 hours incubation, the culture medium was changed to remove the non-adherent blood cells, endothelial cells, macrophages and other miscellaneous cells. After primary human endometrial stromal cells were grown to reach 90% confluence, the cells were digested with 0.25% trypsin for 4 to 6 min, and then subcultured with a split ratio of 1:2 to 1:3. Vimentin which expresses specifically in stromal cells was detected by immuno-fluorescence to measure the cell purity. The cells of purity >95% were used in the following experiments. Primary ectopic endometrial stromal cells of human were subcultured and the subcultured cells of the 3th to 6th passages were chosen as experimental subjects. The cells in logarithmic growth phase were […] and incubated in the cell culture plate at a density of 50%˜60% (i.e. 2×10^4 cells/well). After growing adherent on the wall for 24 hours, the cultured cells were divided into groups and each group was given different doses of PQQ. 20 μL MTT (5 mg/ml in PBS, pH=7.4) was added to each well at indicated time points. The cells were incubated in an incubator at 37° C. in a 5% CO2 atmosphere for 4 h. At the end of incubation, the culture supernatant in each cell was carefully aspirated away. 150 μL DMSO was added to each well. Then the wells were shaken with Orbital shaker for 10 min. The absorbance of each cell was detected at wavelength 490 nm. Finally, the cell proliferation curve was drawn. Primary ectopic endometrial stromal cells were cultured and the subcultured cells of the 3th to 6th passage were chosen as experimental subjects. The cells in logarithmic growth phase were […] and incubated in the cell culture plate at a of 50%˜60% (e.g. 2×10^4 cells/well). The cells grew adhering to the wall for 24 hours before being treated with drugs. The cells were divided into groups and each group was given different dose of PQQ. At indicated time point, 20 μL […] (5 mg/ml in PBS, pH=7.4) was added to every well. The cells were then incubated in an incubator at 37° C. in a 5% CO2 atmosphere for 4 h. After terminating incubation, the culture supernatant in each cell was carefully aspirated away, but formazan crystals should not be aspirated away in any case. 150 μL DMSO was added to each well respectively. All the wells were shaken with Orbital shaker for 10 min to make the crystals adequately solubilized. The absorbance of each cell was detected at wavelength 490 nm. Finally, the cell proliferation curve was drawn.

[3] = test system: endometrial stromal cells; test: Transwell/matrigel invasion assay; settings: 48 h
Description: 500 μL culture medium containing 10% FBS was added into each wells in a 24-well plate. Transwell chambers were treated with 0.3 mg/ml FN diluted by serum free 1640 culture medium (BD company). The cells were seeded (5×10^4 cells/chamber) in the transwell up-chamber, in which 100 μL media were kept finally. The cells were cultured in an incubator at 37° C. in an air atmosphere containing 5% CO2 for the specified time. The chambers were taken out, stained with 0.1% crystal violet, and were photographed. Crystal violet on the membrane was dissolved with 300 μL of 33% Glacial acetic acid. The optical absorption was measured at wavelength 573 nm. On the ice, 100 μL matrigel was taken in with pre-chilled micropipette, transferred into 300 ul pre-chilled serum free medium. The mixture solution was thoroughly mixed to achieve uniform. 25 ul of the previous diluted matrigel was put into transwell up-chamber, covering the whole carbon ester membrane. The transwell was incubated at 37° C., 30 min for Matrigel gelling. The rest treatment was the same as that in Transwell assay.

With `O=C(O)c1cc(C(=O)O)c2c(n1)C(=O)C(=O)c1cc(C(=O)O)[nH]c1-2` [PQQ, pyrroloquinoline quinone] the “relative content of hydrogen peroxide (H2O2)” value ([1]; PQQ 300 nM) was “significantly declined”, the “relative content of hydrogen peroxide (H2O2)” value ([1]; PQQ 3 uM) was “significantly declined” and the “cell proliferation compared with the control group” value ([2]; PQQ 3 um, from 48 h after drug treatment, p<0.01) was “significantly inhibit cell proliferation”. The “cell proliferation compared with the control group” value ([2]; PQQ 30 nm, p>0.05) was “a certain inhibitory effect, but not significant”, the “cell proliferation compared with the control group” value ([2]; PQQ 300 nm, from 48 h after drug treatment, p<0.01) was “significantly inhibit cell proliferation” and the “inhibitory effect on cell invasion compared to the control group” value ([3]; 300 nM PQQ, statistically meaningful) was “definite inhibitory effect”. The “reduction of invasion ability of endometrial stromal cells” value ([3]; 3 μM PQQ) was 35% and the “inhibitory effect on cell invasion compared to the control group” value ([3]; PQQ) was “not obvious”.
